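Results reflect a 48-hour exposure of cells in 96-well plates to compound at five concentrations. Abbreviation: GI50, concentration required for 50% inhibition of growth.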 The source made the active and inactive calls. Rule as the data show it: active = GI50 up to about 1.1 µM and inactive = higher.
How the values were obtained:
Assay in all cases: DTP human tumour cell line panel, 48 h
A549 = test system: A549
CCRF-CEM = test system: CCRF-CEM
COLO 205 = test system: COLO 205
HCT-116 = test system: HCT-116
IGROV-1 = test system: IGROV-1
NCI-H23 = test system: NCI-H23
OVCAR-5 = test system: OVCAR-5
RPMI-8226 = test system: RPMI-8226
SF-539 = test system: SF-539
SNB-19 = test system: SNB-19
SNB-75 = test system: SNB-75
TK-10 = test system: TK-10
UACC-257 = test system: UACC-257
Hs-578T = test system: Hs-578T
MCF7 = test system: MCF7
PC-3 = test system: PC-3
DU-145 = test system: DU-145
MDA-N = test system: MDA-N
T47D = test system: T47D

Compound | GI50 (A549) | GI50 (CCRF-CEM) | GI50 (COLO 205) | GI50 (HCT-116) | GI50 (IGROV-1) | GI50 (NCI-H23) | GI50 (OVCAR-5) | GI50 (RPMI-8226) | GI50 (SF-539) | GI50 (SNB-19) | GI50 (SNB-75) | GI50 (TK-10) | GI50 (UACC-257) | GI50 (Hs-578T) | GI50 (MCF7) | GI50 (PC-3) | GI50 (DU-145) | GI50 (MDA-N) | GI50 (T47D)
O=C1C(c2ccc(Br)cc2)=[N+]([O-])c2ccccc21 | 20.9 µM (inactive) | 4.12 µM (inactive) | 16.3 µM (inactive) | 14.4 µM (inactive) | 17.4 µM (inactive) | 15.8 µM (inactive) | 20.8 µM (inactive) | 3.88 µM (inactive) | 20.5 µM (inactive) | 21 µM (inactive) | 16.6 µM (inactive) | 15.9 µM (inactive) | 11.3 µM (inactive) |  |  |  |  |  | 
CC(C)(C)OC(=O)N1CCCC1C(=O)NCCNc1ccc(NCCNC(=O)C2CCCN2C(=O)OC(C)(C)C)c2c1C(=O)c1ccccc1C2=O (stereo not given) | 15.8 µM (inactive) | > 100 µM (inactive) | 14.4 µM (inactive) | 13.2 µM (inactive) | 13.9 µM (inactive) | 15.6 µM (inactive) | 16.7 µM (inactive) | < 0.01 µM (active) | 16.1 µM (inactive) | < 0.01 µM (active) | 20.4 µM (inactive) | 19.1 µM (inactive) | 14.5 µM (inactive) | 18.7 µM (inactive) | 16.2 µM (inactive) | 11.1 µM (inactive) |  |  | 
COc1ccc(CCN2CCC(C#N)(c3ccc(OC)c(OC)c3)CC2)cc1OC | > 100 µM (inactive) | > 100 µM (inactive) | > 100 µM (inactive) | > 100 µM (inactive) | > 100 µM (inactive) | > 100 µM (inactive) | > 100 µM (inactive) | > 100 µM (inactive) | > 100 µM (inactive) | > 100 µM (inactive) | 30.5 µM (inactive) | 76.2 µM (inactive) | > 100 µM (inactive) |  |  |  |  |  | 
C=CCN(N=O)C(=O)NCCCCC(NC(C)=O)C(=O)NCc1ccccc1 (stereo not given) | > 100 µM (inactive) | > 100 µM (inactive) | > 100 µM (inactive) |  | > 100 µM (inactive) | > 100 µM (inactive) | > 100 µM (inactive) | > 100 µM (inactive) | > 100 µM (inactive) | > 100 µM (inactive) | > 100 µM (inactive) | > 100 µM (inactive) | > 100 µM (inactive) |  |  |  |  |  | 
Cc1ccc2[nH]c3[nH]c(=S)[nH]c(=O)c3c2c1 | > 100 µM (inactive) | > 100 µM (inactive) | > 100 µM (inactive) | > 100 µM (inactive) | > 100 µM (inactive) | > 100 µM (inactive) | > 100 µM (inactive) | 72.8 µM (inactive) | > 100 µM (inactive) | > 100 µM (inactive) | 40 µM (inactive) | > 100 µM (inactive) | > 100 µM (inactive) | > 100 µM (inactive) | > 100 µM (inactive) |  | > 100 µM (inactive) | > 100 µM (inactive) | > 100 µM (inactive)
O=[N+]([O-])c1cc(Cl)cc2cc(Cl)cnc12 | > 100 µM (inactive) | > 100 µM (inactive) | > 100 µM (inactive) | 95.1 µM (inactive) | 7.35 µM (inactive) | > 100 µM (inactive) | > 100 µM (inactive) | > 100 µM (inactive) | > 100 µM (inactive) | > 100 µM (inactive) | 15.6 µM (inactive) | > 100 µM (inactive) | 61.4 µM (inactive) | 25.9 µM (inactive) |  | 93.5 µM (inactive) | > 100 µM (inactive) |  | 16.4 µM (inactive)
O=NN(CCCl)C(=O)N[C@H]1CCCC[C@@H]1Cl | 61.5 µM (inactive) | 19.6 µM (inactive) | > 100 µM (inactive) | 50.6 µM (inactive) | > 100 µM (inactive) | 71.6 µM (inactive) |  | 43.8 µM (inactive) | 24.9 µM (inactive) | > 100 µM (inactive) | 47 µM (inactive) | > 100 µM (inactive) |  |  |  |  |  |  | 
CCOC(=O)c1c2c(n(-c3ccc(C)cc3)c1C)-c1ccccc1C(=O)C2(C(=O)OCC)C(=O)OCC | 30.7 µM (inactive) | 29 µM (inactive) | 45.3 µM (inactive) | 31.4 µM (inactive) | 30.3 µM (inactive) | 57.5 µM (inactive) | 74 µM (inactive) | 14 µM (inactive) | 35.8 µM (inactive) | > 92.7 µM (inactive) | 28.6 µM (inactive) | 59.2 µM (inactive) | 33.8 µM (inactive) | 25.3 µM (inactive) | 25.9 µM (inactive) | 33.7 µM (inactive) | 30.4 µM (inactive) |  | 20.7 µM (inactive)
CC(C)c1cccc(C(C)C)c1NC(=O)C(=O)CC(=O)CC(c1ccccc1)c1c(O)oc2ccccc2c1=O (stereo not given) | > 100 µM (inactive) | > 100 µM (inactive) | > 100 µM (inactive) | > 100 µM (inactive) | > 100 µM (inactive) | > 100 µM (inactive) | > 100 µM (inactive) | > 100 µM (inactive) | > 100 µM (inactive) | > 100 µM (inactive) |  | > 100 µM (inactive) | > 100 µM (inactive) |  |  |  |  |  | 

— ChEMBL document CHEMBL1201862, “PubChem BioAssay data set” (2004)
